{
  "source": "patent US20070287672A1",
  "about": "“Macromolecular Gsh-Activiated Glyoxylase I Inhibitors” (priority 2004, published 2007)",
  "key": {"[1]": {"test_system": "murine leukemia L1210 cells", "settings": "cited from earlier work; for IC50: diethyl ester prodrugs, after 72 hours of incubation, read-out: IC50, growth inhibition of L1210 cells in culture"}, "bovine liver GlxII": {"molecular_target": "T1, bovine liver GlxII (Bos taurus, UniProt Q3B7M2)", "T1 construct": "host or cells: bovine liver", "settings": "cited from earlier work"}, "B16 melanotic melanoma": {"test_system": "B16 melanotic melanoma", "settings": "intravenous administration, tumor-bearing mice; cited from earlier work"}, "HT29 human colon tumors": {"test_system": "HT29 human colon tumors", "settings": "intravenous administration, tumor-bearing mice; cited from earlier work"}, "PC3 prostate tumors": {"test_system": "PC3 prostate tumors", "settings": "intravenous administration, tumor-bearing mice; cited from earlier work"}, "[2]": {"settings": "intravenous administration, tumor-bearing mice; cited from earlier work"}, "[3]": {"test_system": "several different tumor cell lines", "settings": "in vitro; cited from earlier work"}, "[4]": {"settings": "potassium phosphate buffer, 25° C., cited from earlier work"}, "[5]": {"test_system": "Murine B16 melanotic melanoma", "test": "In vitro cytotoxicity, growth inhibition of B16 melanotic melanoma", "format": "cell-based", "settings": "72 hours", "protocol": "Murine B16 melanotic melanoma was obtained from the DCT Tumor Repository (NCI-Cancer Research and Development Center, Frederick, Md.) and was maintained in RPMI 1640 medium containing L-glutamate (Gibco BRL, Gaithersburg, Md.), supplemented with 10% heat-inactivated fetal calf serum and gentamycin (10 μg/mL), under 37° C. humidified air containing 5% CO2. Under these conditions B16 cells have a doubling time of about 26 hours. For the toxicity studies, cells in logarithmic growth were introduced into 24 well plates at a density of 2×10^4 cells/ml in the absence and presence of drug spanning the IC50 values.\nAfter 72 hours, the cells were washed with Hank's balanced salt solution without Ca^2+, treated with trypsin for 10 minutes at 37° C., concentrated by centrifugation and cell densities determined with a Coulter Counter. Cell viabilities were determined by the trypan blue exclusion method (Kaltenbach et al, Exp. Cell. Res. 15:112-117 (1958)).\nReported IC50 values (mean ±standard deviation of triplicate determinations carried out in three separate assays on different days) were calculated using the Hill equation and the program ADAPT (D'Argenio and Schumitzky, Comput. Methods Programs Biomed. 9:115-134 (1979))."}},
  "data": [
    {"smiles": "CCOC(=O)CNC(=O)C(CSC(=O)N(O)c1ccc(Br)cc1)NC(=O)CCC(N)C(=O)OCC", "note": "(centres unmarked) [BHG(Et)2]", "values": [
      {"measurement": "IC50", "setting": "[1]", "result": 16, "unit": "µM"}
    ]},
    {"smiles": "N[C@@H](CCC(=O)N[C@@H](CSC(=O)N(O)c1ccc(Br)cc1)C(=O)NCC(=O)O)C(=O)O", "note": "[BHG, S—(N-p-bromophenyl-N-hydroxycarbamoyl)glutathione]", "values": [
      {"measurement": "substrate for bovine liver GlxII", "setting": "bovine liver GlxII", "result": "substrates for bovine liver GlxII"}
    ]},
    {"smiles": "CCOC(=O)CNC(=O)[C@H](CSC(=O)N(O)c1ccc(Cl)cc1)NC(=O)CC[C@H](N)C(=O)OCC", "note": "[CHG(Et)2]", "values": [
      {"measurement": "inhibition of tumor growth, B16 melanotic melanoma", "setting": "B16 melanotic melanoma", "result": "inhibits the growth"},
      {"measurement": "IC50", "setting": "[1]", "result": 5, "unit": "µM"},
      {"measurement": "toxicity to L1210 cells versus normal splenic lymphocytes", "setting": "[1]; in culture", "result": "significantly more toxic to murine leukemia L1210 cells than to normal splenic lymphocytes"},
      {"measurement": "inhibition of tumor growth, HT29 human colon tumors", "setting": "HT29 human colon tumors", "result": "inhibits the growth"},
      {"measurement": "inhibition of tumor growth, PC3 prostate tumors", "setting": "PC3 prostate tumors", "result": "inhibits the growth"},
      {"measurement": "side effects in short term efficacy studies", "setting": "[2]", "result": "did not detect any significant side effects"},
      {"measurement": "tissue distribution of the prodrug", "setting": "[2]", "result": "appearance of the prodrug in all major organs"}
    ]},
    {"smiles": "N[C@@H](CCC(=O)N[C@@H](CSC(=O)N(O)c1ccc(Cl)cc1)C(=O)NCC(=O)O)C(=O)O", "note": "[CHG, S—(N-p-chlorophenyl-N-hydroxycarbamoyl)glutathione]", "values": [
      {"measurement": "substrate for bovine liver GlxII", "setting": "bovine liver GlxII", "result": "substrates for bovine liver GlxII"}
    ]},
    {"smiles": "CC[S+]([O-])C(=O)N(O)c1ccc(Cl)cc1", "note": "(centres unmarked) [Compound 2, S—(N-4-chlorophenyl-N-hydroxycarbamoyl)ethyl sulfoxide]", "values": [
      {"measurement": "cytostatic and cytotoxic activity on tumor cell lines", "setting": "[3]", "result": "cytostatic and cytotoxic"},
      {"measurement": "rate constant k for reaction of GSH with the simple sulfoxide", "setting": "[4]; 0.1 M (pH 7.5)", "result": "30.7 ± 1.2", "unit": "M⁻¹ s⁻¹"},
      {"measurement": "IC50 value relative to that of HPMA-8-sulfoxide (P1), fold lower", "setting": "[5]", "result": "five to ten-fold lower"}
    ]},
    {"smiles": "CCC[S+]([O-])C(=O)N(O)c1ccc(Cl)cc1", "note": "(centres unmarked) [Compound 2a, S—(N-4-Chlorophenyl-N-hydroxycarbamoyl)propyl sulfoxide]", "values": [
      {"measurement": "IC50 value relative to that of HPMA-8-sulfoxide (P1), fold lower", "setting": "[5]", "result": "five to ten-fold lower"}
    ]},
    {"smiles": "CCCC[S+]([O-])C(=O)N(O)c1ccc(Cl)cc1", "note": "(centres unmarked) [Compound 2b, S—(N-4-Chlorophenyl-N-hydroxycarbamoyl)butyl sulfoxide]", "values": [
      {"measurement": "IC50 value relative to that of HPMA-8-sulfoxide (P1), fold lower", "setting": "[5]", "result": "five to ten-fold lower"}
    ]},
    {"smiles": "C/C=C/C(=O)OCC1=CCCCC1=O", "note": "[Compound 3, 2-crotonyloxymethyl-2-cyclohexenone]", "values": [
      {"measurement": "rate constant k for reaction of GSH with the crotonate ester", "setting": "[4]; 0.1 M (pH 6.5)", "result": "1.13 ± 0.017", "unit": "M⁻¹ s⁻¹"},
      {"measurement": "IC50 value relative to that of HPMA-7 (P4), fold lower", "setting": "[5]", "result": "over 7000 fold"}
    ]},
    {"smiles": "CCOC(=O)CNC(=O)C(CSC(=O)N(O)c1ccccc1)NC(=O)CCC(N)C(=O)OCC", "note": "(centres unmarked) [PHG(Et)2]", "values": [
      {"measurement": "IC50", "setting": "[1]", "result": 63, "unit": "µM"}
    ]},
    {"smiles": "CN(O)C(=O)SC[C@H](NC(=O)CC[C@H](N)C(=O)O)C(=O)NCC(=O)O", "note": "[S—(N-methyl-N-hydroxycarbamoyl)glutathione]", "values": [
      {"measurement": "substrate for bovine liver GlxII", "setting": "bovine liver GlxII", "result": "substrates for bovine liver GlxII"}
    ]},
    {"smiles": "N[C@@H](CCC(=O)N[C@@H](CSC(=O)N(O)c1ccccc1)C(=O)NCC(=O)O)C(=O)O", "note": "[S—(N-phenyl-N-hydroxycarbamoyl)glutathione]", "values": [
      {"measurement": "substrate for bovine liver GlxII", "setting": "bovine liver GlxII", "result": "substrates for bovine liver GlxII"}
    ]}
  ]
}
